In US8178570B2, “Tie-2 modulators and methods of use” (Exelixis, Inc., priority 2003, dated 2012) one finds IC50 data, which are given here for 29 compounds.

The structures appear in SMILES notation.

Tie-2, sequence (Q02763 23-1124): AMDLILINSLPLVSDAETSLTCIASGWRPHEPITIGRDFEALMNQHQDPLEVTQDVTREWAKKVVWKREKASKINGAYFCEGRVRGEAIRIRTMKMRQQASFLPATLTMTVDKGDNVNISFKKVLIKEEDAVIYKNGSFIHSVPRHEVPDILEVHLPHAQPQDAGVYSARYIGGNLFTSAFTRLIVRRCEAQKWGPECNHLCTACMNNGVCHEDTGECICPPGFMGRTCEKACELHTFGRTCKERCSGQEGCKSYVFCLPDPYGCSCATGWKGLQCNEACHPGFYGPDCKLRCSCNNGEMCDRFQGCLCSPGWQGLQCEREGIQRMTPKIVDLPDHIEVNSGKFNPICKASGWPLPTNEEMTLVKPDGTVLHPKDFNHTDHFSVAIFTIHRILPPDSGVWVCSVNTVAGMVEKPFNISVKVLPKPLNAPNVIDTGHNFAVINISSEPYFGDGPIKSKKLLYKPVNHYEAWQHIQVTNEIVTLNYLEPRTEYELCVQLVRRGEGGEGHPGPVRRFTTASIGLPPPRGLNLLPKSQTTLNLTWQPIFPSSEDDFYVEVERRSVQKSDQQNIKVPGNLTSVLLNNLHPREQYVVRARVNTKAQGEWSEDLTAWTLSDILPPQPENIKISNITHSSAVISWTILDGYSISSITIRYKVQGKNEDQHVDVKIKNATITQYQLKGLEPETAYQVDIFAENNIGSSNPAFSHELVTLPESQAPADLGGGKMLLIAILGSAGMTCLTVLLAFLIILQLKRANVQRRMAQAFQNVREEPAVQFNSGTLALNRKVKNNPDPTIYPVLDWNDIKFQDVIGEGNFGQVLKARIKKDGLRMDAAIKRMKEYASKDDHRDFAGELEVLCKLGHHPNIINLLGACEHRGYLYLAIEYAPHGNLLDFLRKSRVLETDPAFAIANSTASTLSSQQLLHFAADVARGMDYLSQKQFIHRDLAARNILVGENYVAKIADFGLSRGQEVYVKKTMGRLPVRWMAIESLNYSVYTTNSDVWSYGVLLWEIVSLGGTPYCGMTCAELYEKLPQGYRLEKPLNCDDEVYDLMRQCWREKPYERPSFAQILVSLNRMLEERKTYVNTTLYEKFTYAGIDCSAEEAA

The target in this test is Tie-2 (Homo sapiens, UniProt Q02763). Kind of test: Tie-2 tyrosine kinase activity: kinase-dependent ATP consumption (pEY substrate, luciferase/luciferin chemiluminescence) or 33P-ATP incorporation into substrate. It is filed as biochemical. The settings on record: Tie-2 (human enzyme) inhibition, Table 2, class symbols A-D. On the procedure: One measure of inhibition is Ki. […] The Ki for a compound is determined from the IC50 based on three assumptions. First, only one compound molecule binds to the enzyme and there is no cooperativity. […] Third, the enzymatic rate of the enzyme-inhibitor complex is zero. The rate (i.e., compound concentration) data are fitted to the equation:
[formula] where V is the observed rate, Vmax, is the rate of the free enzyme, I0 is the inhibitor concentration, E0 is the enzyme concentration, and Kd is the dissociation constant of the enzyme-inhibitor complex.
Tyrosine kinase activity is determined by 1) measurement of kinase-dependent ATP consumption by in the presence of a generic substrate such as polyglutamine, tyrosine (pEY), by luciferase/luciferin-mediated chemiluminescence or; 2) incorporation of radioactive phosphate derived from ^33P-ATP into a generic substrate which has been absorbed onto the well surface of polystyrene microtiter plates. Phosphorylated substrate products are quantified by scintillation spectrometry.
Inhibition is indicated as IC50 with following key: A=IC50 less than 50 nM, B=IC50 greater than 50 nM, but less than or equal to 1000 nM, C=IC50 greater than 1000 nM, but less than 10,000 nM, and D=IC50 10,000 nM or greater. The abbreviation for human enzyme, Tie-2, is defined as tyrosine kinase with immunoglobulin and EGF repeats.
As usually defined, the IC50 is the concentration that gives 50% inhibition. Higher therefore signals weaker potency in that assay. `COc1ccc(-c2nc(-c3ccncc3)n(CCN(C(=O)Nc3cccc4ccccc34)C3CCCC3)n2)cc1Cl` [Entry 55, N-(2-{3-[3-chloro-4-(methyloxy)phenyl]-5-pyridin-4-yl-1H-1,2,4-triazol-1-yl}ethyl)-N-cyclopentyl-N′-naphthalen-1-ylurea] returned an IC50 of at least 10 µM.
As for `O=C(Cc1cccc2ccccc12)N(CCn1nc(-c2ccncc2)nc1-c1cccc(F)c1)C1CCCC1` [Entry 56, N-cyclopentyl-N-{2-[5-(3-fluorophenyl)-3-pyridin-4-yl-1H-1,2,4-triazol-1-yl]ethyl}-2-naphthalen-1-ylacetamide], the figure is below 0.05 µM; as for `O=C(Cc1cccc2ccccc12)N(CCn1nc(-c2cccc(F)c2)nc1-c1ccncc1)C1CCCC1` [Entry 57, N-cyclopentyl-N-{2-[3-(3-fluorophenyl)-5-pyridin-4-yl-1H-1,2,4-triazol-1-yl]ethyl}-2-naphthalen-1-ylacetamide], 1 to 10 µM.
Take `O=C(Cc1cccc2ccccc12)N(CCn1nc(-c2ccncc2)nc1-c1cccc(Cl)c1)C1CCCC1` [Entry 58, N-{2-[5-(3-chlorophenyl)-3-pyridin-4-yl-1H-1,2,4-triazol-1-yl]ethyl}-N-cyclopentyl-2-naphthalen-1-ylacetamide]: the IC50 is below 0.05 µM.
`O=C(Cc1cccc2ccccc12)N(CCn1nc(-c2cccc(Cl)c2)nc1-c1ccncc1)C1CCCC1` [Entry 59, N-{2-[3-(3-chlorophenyl)-5-pyridin-4-yl-1H-1,2,4-triazol-1-yl]ethyl}-N-cyclopentyl-2-naphthalen-1-ylacetamide] returned an IC50 of 1 to 10 µM.
The same measure for `O=C(Cc1cccc2ccccc12)N(CCn1nc(-c2ccncc2)nc1C1CCNCC1)C1CCCC1` [Entry 60, N-cyclopentyl-2-naphthalen-1-yl-N-[2-(5-piperidin-4-yl-3-pyridin-4-yl-1H-1,2,4-triazol-1-yl)ethyl]acetamide]: below 0.05 µM; for `O=C(Cc1cccc2ccccc12)N(CCn1nc(-c2ccncc2)nc1-c1ccccc1Cl)C1CCCC1` [Entry 61, N-{2-[5-(2-chlorophenyl)-3-pyridin-4-yl-1H-1,2,4-triazol-1-yl]ethyl}-N-cyclopentyl-2-naphthalen-1-ylacetamide]: below 0.05 µM.
As for `O=C(Cc1cccc2ccccc12)N(CCn1nc(-c2ccccc2Cl)nc1-c1ccncc1)C1CCCC1` [Entry 62, N-{2-[3-(2-chlorophenyl)-5-pyridin-4-yl-1H-1,2,4-triazol-1-yl]ethyl}-N-cyclopentyl-2-naphthalen-1-ylacetamide], the figure is 1 to 10 µM.
As for `O=C(Cc1cccc2ccccc12)N(CCn1nc(-c2ccncc2)nc1-c1ccc2c(c1)OCO2)C1CCCC1` [Entry 63, N-{2-[5-(1,3-benzodioxol-5-yl)-3-pyridin-4-yl-1H-1,2,4-triazol-1-yl]ethyl}-N-cyclopentyl-2-naphthalen-1-ylacetamide], the figure is below 0.05 µM.
`O=C(Cc1cccc2ccccc12)N(CCn1nc(-c2ccc3c(c2)OCO3)nc1-c1ccncc1)C1CCCC1` [Entry 64, N-{2-[3-(1,3-benzodioxol-5-yl)-5-pyridin-4-yl-1H-1,2,4-triazol-1-yl]ethyl}-N-cyclopentyl-2-naphthalen-1-ylacetamide] yielded an IC50 of 1 to 10 µM.
`O=C(Cc1cccc2ccccc12)N(CCn1nc(-c2ccncc2)nc1-c1cccc(Br)c1)C1CCCC1` [Entry 65, N-{2-[5-(3-bromophenyl)-3-pyridin-4-yl-1H-1,2,4-triazol-1-yl]ethyl}-N-cyclopentyl-2-naphthalen-1-ylacetamide] displayed an IC50 below 0.05 µM.
The same measure for `O=C(Cc1cccc2ccccc12)N(CCn1nc(-c2cccc(Br)c2)nc1-c1ccncc1)C1CCCC1` [Entry 66, N-{2-[3-(3-bromophenyl)-5-pyridin-4-yl-1H-1,2,4-triazol-1-yl]ethyl}-N-cyclopentyl-2-naphthalen-1-ylacetamide]: at least 10 µM; for `O=C(Cc1cccc2ccccc12)N(CCn1nc(-c2ccncc2)nc1-c1ccc(Br)cc1)C1CCCC1` [Entry 67, N-{2-[5-(4-bromophenyl)-3-pyridin-4-yl-1H-1,2,4-triazol-1-yl]ethyl}-N-cyclopentyl-2-naphthalen-1-ylacetamide]: below 0.05 µM; for `O=C(Cc1cccc2ccccc12)N(CCn1nc(-c2ccc(Br)cc2)nc1-c1ccncc1)C1CCCC1` [Entry 68, N-{2-[3-(4-bromophenyl)-5-pyridin-4-yl-1H-1,2,4-triazol-1-yl]ethyl}-N-cyclopentyl-2-naphthalen-1-ylacetamide]: below 0.05 µM.
`Cc1nc(-c2ccnnc2)nn1CCN(C(=O)Cc1cccc2ccccc12)C1CCCC1` [Entry 69, N-cyclopentyl-N-[2-(5-methyl-3-pyridazin-4-yl-1H-1,2,4-triazol-1-yl)ethyl]-2-naphthalen-1-ylacetamide] yielded an IC50 of 0.05 to 1 µM.
The same measure for `Cc1ccc(-c2nc(-c3ccncc3)nn2CCN(C(=O)Cc2cccc3ccccc23)C2CCCC2)cc1` [Entry 70, N-cyclopentyl-N-{2-[5-(4-methylphenyl)-3-pyridin-4-yl-1H-1,2,4-triazol-1-yl]ethyl}-2-naphthalen-1-ylacetamide]: below 0.05 µM; for `Cc1ccc(-c2nc(-c3ccncc3)n(CCN(C(=O)Cc3cccc4ccccc34)C3CCCC3)n2)cc1` [Entry 71, N-cyclopentyl-N-{2-[3-(4-methylphenyl)-5-pyridin-4-yl-1H-1,2,4-triazol-1-yl]ethyl}-2-naphthalen-1-ylacetamide]: 1 to 10 µM; for `Cc1cccc(-c2nc(-c3ccncc3)nn2CCN(C(=O)Cc2cccc3ccccc23)C2CCCC2)c1` [Entry 72, N-cyclopentyl-N-{2-[5-(3-methylphenyl)-3-pyridin-4-yl-1H-1,2,4-triazol-1-yl]ethyl}-2-naphthalen-1-ylacetamide]: below 0.05 µM.
The same measure for `Cc1cccc(-c2nc(-c3ccncc3)n(CCN(C(=O)Cc3cccc4ccccc34)C3CCCC3)n2)c1` [Entry 73, N-cyclopentyl-N-{2-[3-(3-methylphenyl)-5-pyridin-4-yl-1H-1,2,4-triazol-1-yl]ethyl}-2-naphthalen-1-ylacetamide]: 1 to 10 µM.
The same measure for `O=C(Cc1cccc2ccccc12)N(CCn1nc(-c2ccncc2)nc1-c1ccc(Cl)cc1Cl)C1CCCC1` [Entry 74, N-cyclopentyl-N-{2-[5-(2,4-dichlorophenyl)-3-pyridin-4-yl-1H-1,2,4-triazol-1-yl]ethyl}-2-naphthalen-1-ylacetamide]: below 0.05 µM; for `O=C(Cc1cccc2ccccc12)N(CCn1nc(-c2ccc(Cl)cc2Cl)nc1-c1ccncc1)C1CCCC1` [Entry 75, N-cyclopentyl-N-{2-[3-(2,4-dichlorophenyl)-5-pyridin-4-yl-1H-1,2,4-triazol-1-yl]ethyl}-2-naphthalen-1-ylacetamide]: 1 to 10 µM; for `O=C(Cc1cccc2ccccc12)N(CCn1nc(-c2ccncc2)nc1-c1ccc(C(F)(F)F)cc1)C1CCCC1` [Entry 76, N-cyclopentyl-2-naphthalen-1-yl-N-(2-{3-pyridin-4-yl-5-[4-(trifluoromethyl)phenyl]-1H-1,2,4-triazol-1-yl}ethyl)acetamide]: below 0.05 µM.
As to `O=C(Cc1cccc2ccccc12)N(CCn1nc(-c2ccc(C(F)(F)F)cc2)nc1-c1ccncc1)C1CCCC1` [Entry 77, N-cyclopentyl-2-naphthalen-1-yl-N-(2-{5-pyridin-4-yl-3-[4-(trifluoromethyl)phenyl]-1H-1,2,4-triazol-1-yl}ethyl)acetamide], the IC50 is at least 10 µM.
With `COc1ccc(-c2nc(-c3ccncc3)nn2CCN(C(=O)Cc2cccc3ccccc23)C2CC2)cc1Cl` [Entry 78, N-(2-{5-[3-chloro-4-(methyloxy)phenyl]-3-pyridin-4-yl-1H-1,2,4-triazol-1-yl}ethyl)-N-cyclopropyl-2-naphthalen-1-ylacetamide], the half-maximal inhibitory concentration (IC50) was below 0.05 µM.
`COc1ccc(-c2nc(-c3ccncc3)nn2CCN(C(=O)Cc2cccc3ccccc23)C(C)C)cc1Cl` [Entry 79, N-(2-{5-[3-chloro-4-(methyloxy)phenyl]-3-pyridin-4-yl-1H-1,2,4-triazol-1-yl}ethyl)-N-(1-methylethyl)-2-naphthalen-1-ylacetamide] registered an IC50 of at least 10 µM.
As for `CCc1nc(-c2ccncc2)nn1CCN(C(=O)Cc1cccc2ccccc12)C1CCCC1` [Entry 80, N-cyclopentyl-N-[2-(5-ethyl-3-pyridin-4-yl-1H-1,2,4-triazol-1-yl)ethyl]-2-naphthalen-1-ylacetamide], the figure is below 0.05 µM; as for `COc1ccc(-c2nc(-c3ccncc3)nn2CCN(C(=O)Cc2cccc3ccccc23)C2CCN(C)CC2)cc1Cl` [Entry 81, N-(2-{5-[3-chloro-4-(methyloxy)phenyl]-3-pyridin-4-yl-1H-1,2,4-triazol-1-yl}ethyl)-N-(1-methylpiperidin-4-yl)-2-naphthalen-1-ylacetamide], at least 10 µM; as for `COc1ccc(-c2nc(-c3ccncc3)nn2CCN(C(=O)N[C@@H]2C[C@H]2c2ccccc2)C2CCCC2)cc1Cl` [Entry 82, N-(2-{5-[3-chloro-4-(methyloxy)phenyl]-3-pyridin-4-yl-1H-1,2,4-triazol-1-yl}ethyl)-N-cyclopentyl-N′-[(1R,2S)-2-phenylcyclopropyl]urea], 1 to 10 µM.
`COc1ccc(-c2nc(-c3ccncc3)nn2CCN(C(=O)Nc2ccc(Cl)cc2Cl)C2CCCC2)cc1Cl` [Entry 83, N-(2-{5-[3-chloro-4-(methyloxy)phenyl]-3-pyridin-4-yl-1H-1,2,4-triazol-1-yl}ethyl)-N-cyclopentyl-N′-(2,4-dichlorophenyl)urea]: the IC50 is at least 10 µM.
